Source: patent US20180296523A1, “USE OF POLYMETHOXYLATED FLAVONES TO AMELIORATE CIRCADIAN RHYTHM DISORDERS” (THE BOARD OF REGENTS OF THE UNIVERSITY OF TEXAS SY, priority 2017, published 2018)
Entries after “also recorded” stand apart in the source; their conditions may differ.

Experiments:
[1] = system: WT and Clock^Δ19/Δ19 mice; assay: Circadian locomotor (wheel-running) activity; type: in vivo, mouse
Excerpt: RC-fed WT, HFD-fed WT and Clock^[…]/[…] mice with NOB or Vehicle treatment were used for circadian locomotor activity experiments. Briefly, mice were first maintained for at least 2 weeks in a 12 hr:12 hr light:dark (LD) cycle, then released into the constant darkness, free-running condition. The mice were then maintained in constant darkness for another 2 weeks. Wheel-running data was downloaded as VitalView data files and analyzed with the […] and Actogram J program (Schmid et al., 2011; Zheng et al., 1999).

[2] = system: Bmal1 promoter with RORα/γ knockdown; assay: Bmal1 promoter-driven luciferase reporter in U2OS cells; type: cell-based
[3] = biological target: T1, RORγt (Homo sapiens, UniProt P51449); conditions: Huh et al., 2011; cited from earlier work
T1 sequence (P51449 1-497 isoform P51449-2): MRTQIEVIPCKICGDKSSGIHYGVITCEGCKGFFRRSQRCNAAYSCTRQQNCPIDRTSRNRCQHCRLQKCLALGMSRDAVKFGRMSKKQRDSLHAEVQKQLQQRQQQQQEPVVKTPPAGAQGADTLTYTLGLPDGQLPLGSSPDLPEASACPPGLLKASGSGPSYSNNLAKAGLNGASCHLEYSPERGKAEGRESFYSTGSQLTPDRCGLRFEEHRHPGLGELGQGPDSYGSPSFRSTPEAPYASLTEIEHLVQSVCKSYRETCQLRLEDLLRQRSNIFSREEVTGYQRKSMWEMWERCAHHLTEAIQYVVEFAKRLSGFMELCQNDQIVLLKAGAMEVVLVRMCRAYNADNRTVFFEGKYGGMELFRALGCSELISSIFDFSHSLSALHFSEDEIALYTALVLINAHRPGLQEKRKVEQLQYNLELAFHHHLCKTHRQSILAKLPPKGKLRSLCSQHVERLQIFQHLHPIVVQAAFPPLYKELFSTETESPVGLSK

[4] = system: regular chow-fed mice; assay: Metabolic homeostasis in regular chow-fed mice; type: in vivo, mouse; conditions: regular chow (RC) feeding, 9-week treatment
Method: Weekly body weight was monitored in different treatment mice for 10 weeks. Body mass composition was measured at the end of experiments using a minispec mqNMR spectrometer (Bruker Optics, Texas) (Garcia et al., 2013). A control group of mice were fed with regular chow diet (Purina 5001) in parallel with the two treatment groups in HFD. For db/db and db/db Clock^Δ19/Δ19 mice, male mice at 6-8 weeks of age were group-housed (2-3/cage) and maintained on regular chow diets. Mice were subjected to oral gavage with either DMSO or NOB as described above.
Glucose tolerance test (GTT) and insulin tolerance test (ITT) were performed largely as described (He et al., 2015; Jeong et al., 2015). Briefly, after overnight and 5-hr fasting, GTT and ITT were conducted at ZT2 and ZT8 respectively. Glucose levels were measured from tail blood before and 15, 30, 60, or 120 min after injection of either 1 g/kg glucose or 0.75 U/kg insulin (Sigma) at ZT2 and ZT8 respectively by using the ONETOUCH UltraMini blood glucose monitoring system (LifeScan). Serum insulin levels were measured with the Rat/Mouse Insulin Elisa kit (Millipore) according to the manufacturer's instructions. The plasma samples were collected at ZT2 as described above for lipid assays.

[5] = system: PER2::Luc Clock^Δ19/Δ19 fibroblast cells; assay: Reporter rhythm in homozygous Clock^Δ19/Δ19 reporter cells; type: cell-based, mouse; conditions: clock-disrupted homozygous Clock^Δ19/Δ19 cells
[6] = system: peripheral tissue explants from PER2::Luc reporter mice; assay: PER2::Luc reporter rhythms in peripheral tissue explants; type: cell-based, mouse
Method: The chemical screen for circadian clock modulators was conducted at the Chemical Genomics Core facility at the UTHSC-H. The in-house chemical library screened consists of compounds from NIH Clinical Collection, NCI collection and Microsource Spectrum Collection. The screening was conducted largely based on the protocol previously described (Chen et al., 2012). Briefly, 15,000 immortalized fibroblast cells from Clock^Δ19/+ heterozygous mice expressing the PER2::Luc bioluminescence reporter were plated into each well of 96-well plates, and incubated for 3-4 d to allow growth to confluency. Cells were then incubated with 5 μM forskolin for 1-2 h followed by the addition of chemical compounds to the plates with robotic arms (Beckman), and then subjected to continuous monitoring over several days in a temperature-controlled EnVision microplate reader (Perkin Elmer). Data analysis was carried out by using the MultiCycle software (Actimetrics) for measurement of period, phase, and amplitude. […] NOB and a structurally related analog Naringin (NAR) were re-ordered from commercial sources including Sigma and GenDEPOT and dose response validation was conducted using PER2::LucSV reporter fibroblast cells which express stronger bioluminescence signals and thus allow precise measurements of circadian clock effects of compounds (Chen et al., 2012). Tissue explant experiments were conducted as described previously (Chen et al., 2012).

[7] = Pharmacokinetic study in mice (LC-MS/MS); type: in vivo; conditions: mouse, oral gavage 200 mg/kg; for exposure in plasma/serum, brain and liver: single dose, 200 mg/kg
Method: For diet-induced obesity, male mice at 6 weeks of age were fed with HFD (D12492, Research Diets) until the end of the experimental protocol. The mice were treated with either vehicle (DMSO) or NOB (200 mg/kg body weight) via oral gavage every other day, in the time window of ZT8-10, throughout the experimental period. An every-other-day dosing regimen was chosen at the indicated level based on several reasons. First, previous in vivo studies have used similar overall amounts for mouse treatment (100-125 mg/kg/day) (Lee et al., 2013; Li et al., 2006). The oral gavage procedure was done in late afternoon (ZT8-10) prior to the start of their active phase, reasoning that this may coincide with the time-window adopted by previous studies. Second, daily dosing was not chosen to avoid entraining the experimental mice with the procedure per se as an artificial zeitgeber. Furthermore, pilot pharmacokinetic (PK) assays were done under a single-dose condition (Fig. S7). […] Therefore, it was reasoned that every-other day dosing helps avoid any incomplete daily clearance over the chronic experimental period (10 weeks). NOB was administered orally at ZT8 at a dose of 200 mg/kg in 0.25% sodium Carboxy Methyl Cellulose (CMC) suspension. Three mice per time point were sacrificed at 0.0, 1.0, 2.0, 4.0, 8.0 and 24.0 hr after oral gavage. NOB in plasma, brain and liver was determined by LC-MS/MS (API 4000: EQ-RS-MS-006).

For `COc1ccc(-c2cc(=O)c3c(OC)c(OC)c(OC)c(OC)c3o2)cc1OC` [nobiletin], the wheel-running activity levels ([1]; HFD-fed Clock^Δ19/Δ19 mice) was “no significant difference in activity levels”, the wheel-running activity levels ([1]; HFD-fed WT mice, vs control treatment) was “greatly increased wheel-running activity levels” and the “wheel-running activity and periodicity” value ([1]; RC-fed WT C57/6J mice) was “normal wheel-running activity and periodicity”. For the same molecule, the “induction of Bmal1 reporter after knockdown of RORα/γ by siRNAs” value [2] was “abrogated the nobiletin-mediated induction”, the “effect on RORγt in primary screen” value [3] was “activated RORγt” and the metabolic homeostasis [4] was “did not show significantly beneficial effects”. The metabolic homeostasis ([4]; listed as NOB) was “did not effect metabolic homeostasis”, the restoring reporter rhythm [5] was “ineffective in restoring the rhythm; also recorded: not able to rescue reporter rhythms” and the “reporter rhythm in pituitary explants” value ([6]; PER2::Luc Clock^Δ19/+ reporter mice) was “Clock-enhancing effects”. The “reporter rhythm in liver explant” value ([6]; PER2::Luc WT reporter mice) was “Clock-enhancing effects”, the “reporter rhythm in lung explant” value ([6]; PER2::Luc WT reporter mice) was “Clock-enhancing effects” and the “reporter rhythm in pituitary explants” value ([6]; PER2::Luc WT reporter mice) was “Clock-enhancing effects”. For the same molecule, the “PER2::Luc reporter rhythms in peripheral tissue explants” value ([6]; from both Clock^Δ19/+ and WT reporter knockin mice) was “enhanced PER2::Luc reporter rhythms”, the “NOB level 8 hr after single-dose administration” value [7] was “undetectable” and the “exposure in plasma/serum, brain and liver” value [7] was “significant brain and systemic exposure”. The “exposure in plasma/serum, brain and liver” value ([7]; listed as NOB) was “significant exposure in serum, brain and particularly liver”.
